Results published in ChEMBL document CHEMBL1909046, “DrugMatrix in vitro pharmacology data”.
pIC50, pKi: −log10 of the molar value.

Assays:
[1] = DRUGMATRIX: Sodium/nucleoside co-transporter radioligand binding (ligand: nitrobenzylthioinosine); format: cell membranes, Cavia porcellus, Dunkin-Hartley, Cerebral cortex, Membrane; conditions: Not Active = under 50% inhibition at 10 µM
Substance-K receptor = target: T1, Substance-K receptor (Homo sapiens, UniProt P21452); format: cell membranes, CHO, Membrane; conditions: for IC50: cho; as to all read-outs here: in other assays of this panel Not Active means under 50% inhibition at 10 µM
T1 sequence (P21452 whole entry): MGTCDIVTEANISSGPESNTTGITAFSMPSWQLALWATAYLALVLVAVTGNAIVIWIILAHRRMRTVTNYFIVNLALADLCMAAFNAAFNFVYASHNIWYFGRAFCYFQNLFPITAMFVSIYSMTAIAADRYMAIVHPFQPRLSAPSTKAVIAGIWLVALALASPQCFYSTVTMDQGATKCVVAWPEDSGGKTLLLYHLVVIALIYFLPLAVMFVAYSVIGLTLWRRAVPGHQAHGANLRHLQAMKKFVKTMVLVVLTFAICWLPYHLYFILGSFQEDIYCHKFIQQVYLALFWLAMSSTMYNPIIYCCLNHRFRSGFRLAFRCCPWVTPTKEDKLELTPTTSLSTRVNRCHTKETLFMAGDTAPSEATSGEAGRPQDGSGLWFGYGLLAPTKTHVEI

[2] = target: T2, C-X-C chemokine receptor type 2 (Homo sapiens, UniProt P25025); format: cell membranes, CHO-K1, Membrane; conditions: for IC50: cho-k1; as to all read-outs here: in other assays of this panel Not Active means under 50% inhibition at 10 µM
T2 sequence (P25025 whole entry): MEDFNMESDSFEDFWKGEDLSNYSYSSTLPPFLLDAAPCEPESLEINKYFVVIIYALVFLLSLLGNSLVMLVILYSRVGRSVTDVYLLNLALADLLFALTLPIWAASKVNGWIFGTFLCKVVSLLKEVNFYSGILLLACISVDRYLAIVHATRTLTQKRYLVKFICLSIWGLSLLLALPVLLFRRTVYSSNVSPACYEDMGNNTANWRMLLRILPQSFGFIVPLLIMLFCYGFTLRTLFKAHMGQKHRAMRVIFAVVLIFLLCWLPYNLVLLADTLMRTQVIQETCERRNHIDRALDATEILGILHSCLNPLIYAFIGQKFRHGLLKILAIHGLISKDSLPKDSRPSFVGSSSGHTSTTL

[3] = DRUGMATRIX: Glutamate, NMDA, Agonism radioligand binding (ligand: [3H] CGP-39653); format: cell membranes, Rattus norvegicus, Wistar, Cerebral cortex, Membrane; conditions: Not Active = under 50% inhibition at 10 µM
[4] = target: T3, Nitric oxide synthase, inducible (Mus musculus, UniProt P29477); set-up: species or system Escherichia coli;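 also: inhibition of iNOS enzyme activity measured with L-arginine as substrate; in other assays of this panel Not Active means under 50% inhibition at 10 µM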
T3 sequence (P29477 whole entry): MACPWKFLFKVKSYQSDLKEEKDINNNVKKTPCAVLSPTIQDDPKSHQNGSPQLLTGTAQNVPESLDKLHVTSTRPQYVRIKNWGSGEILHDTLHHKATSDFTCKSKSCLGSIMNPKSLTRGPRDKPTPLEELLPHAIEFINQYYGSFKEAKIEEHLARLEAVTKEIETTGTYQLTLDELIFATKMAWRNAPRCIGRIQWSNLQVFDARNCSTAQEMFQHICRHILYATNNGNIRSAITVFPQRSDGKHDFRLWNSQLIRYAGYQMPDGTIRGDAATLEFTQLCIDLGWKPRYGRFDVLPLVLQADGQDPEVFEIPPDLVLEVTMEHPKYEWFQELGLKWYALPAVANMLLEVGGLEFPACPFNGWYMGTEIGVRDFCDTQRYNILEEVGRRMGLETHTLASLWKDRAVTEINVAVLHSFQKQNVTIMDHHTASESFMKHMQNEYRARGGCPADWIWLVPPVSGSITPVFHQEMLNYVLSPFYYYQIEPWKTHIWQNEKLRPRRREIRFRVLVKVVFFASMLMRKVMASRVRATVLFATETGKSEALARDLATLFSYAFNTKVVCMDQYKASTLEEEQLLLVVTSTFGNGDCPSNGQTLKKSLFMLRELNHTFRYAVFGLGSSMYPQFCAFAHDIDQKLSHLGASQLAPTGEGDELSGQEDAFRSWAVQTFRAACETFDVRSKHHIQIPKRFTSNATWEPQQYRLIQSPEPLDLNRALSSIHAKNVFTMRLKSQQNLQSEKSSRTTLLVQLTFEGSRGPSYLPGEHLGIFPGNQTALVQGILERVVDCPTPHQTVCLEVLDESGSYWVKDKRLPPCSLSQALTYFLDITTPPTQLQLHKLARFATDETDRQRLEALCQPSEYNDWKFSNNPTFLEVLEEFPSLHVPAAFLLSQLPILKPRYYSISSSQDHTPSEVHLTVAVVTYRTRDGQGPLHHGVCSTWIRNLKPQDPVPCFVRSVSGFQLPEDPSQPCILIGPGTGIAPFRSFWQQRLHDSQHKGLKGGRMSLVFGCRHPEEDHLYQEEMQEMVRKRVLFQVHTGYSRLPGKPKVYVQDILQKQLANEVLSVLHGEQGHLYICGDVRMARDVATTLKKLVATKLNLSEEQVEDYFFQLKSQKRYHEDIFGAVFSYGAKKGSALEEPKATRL

[5] = DRUGMATRIX: Purinergic P2X radioligand binding (ligand: [3H] alpha, beta-Methylene-ATP); format: cell membranes, Oryctolagus cuniculus, New Zealand albino, Urinary bladder, Membrane; conditions: Not Active = under 50% inhibition at 10 µM

SMILES	IC50 [1]	Ki [1]	IC50 (Substance-K receptor)	IC50 [2]	IC50 [3]	Ki [3]	IC50 [4]	IC50 [5]	Ki [5]	pIC50 (Substance-K receptor; read-out: IC50)	pKi (Substance-K receptor; read-out: Ki)	pIC50 ([1]; read-out: IC50)	pKi ([1]; read-out: Ki)	pIC50 ([2]; read-out: IC50)	pKi ([2]; read-out: Ki)
CC#C[C@]1(O)CC[C@H]2[C@@H]3CCC4=CC(=O)CCC4=C3[C@@H](c3ccc(N(C)C)cc3)C[C@@]21C [MIFEPRISTONE]	Not Active	Not Active	Not Active	Not Active	Not Active	Not Active	Not Active	Not Active	Not Active	–	–	–	–	–	–
CC[C@@]1(O)C(=O)OCc2c1cc1n(c2=O)Cc2cc3c(CN(C)C)c(O)ccc3nc2-1 [TOPOTECAN]	Not Active	Not Active	Not Active	Not Active	Not Active	Not Active	Not Active	Not Active	Not Active	–	–	–	–	–	–
Nc1nc(N)c2nc(-c3ccccc3)c(N)nc2n1	Not Active	Not Active	Not Active	Not Active	Not Active	Not Active	Not Active	Not Active	Not Active	–	–	–	–	–	–
Cc1cc2c(s1)Nc1ccccc1N=C2N1CCN(C)CC1 [OLANZAPINE]	–	–	Not Active	Not Active	–	–	Not Active	–	–	–	–	–	–	–	–
CC[C@H](C)[C@@H](CO[C@@H](Cc1ccccc1)C(=O)N[C@@H](CCS(C)(=O)=O)C(=O)OC(C)C)NC[C@@H](N)CS	Not Active	Not Active	–	Not Active	Not Active	Not Active	Not Active	Not Active	Not Active	5.79	6.27	–	–	–	–
CO[C@@]12[C@H](COC(N)=O)C3=C(C(=O)C(C)=C(N)C3=O)N1C[C@@H]1N[C@@H]12 [MITOMYCIN]	Not Active	Not Active	Not Active	Not Active	Not Active	Not Active	Not Active	Not Active	Not Active	–	–	–	–	–	–
CCOC(=O)C1=C(C)NC(C)=C(C(=O)OCC)C1c1ccccc1/C=C/C(=O)OC(C)(C)C [LACIDIPINE]	Not Active	Not Active	Not Active	Not Active	Not Active	Not Active	Not Active	Not Active	Not Active	–	–	–	–	–	–
Cc1cn([C@H]2C=C[C@@H](CO)O2)c(=O)[nH]c1=O [STAVUDINE]	Not Active	Not Active	Not Active	Not Active	Not Active	Not Active	Not Active	Not Active	Not Active	–	–	–	–	–	–
C#C[C@]1(O)CC[C@H]2[C@@H]3[C@H](C)CC4=C(CCC(=O)C4)[C@H]3CC[C@@]21C [TIBOLONE]	Not Active	Not Active	Not Active	Not Active	Not Active	Not Active	Not Active	Not Active	Not Active	–	–	–	–	–	–
CC(O)C(=O)O (stereo not given) [LACTIC ACID]	Not Active	Not Active	Not Active	Not Active	Not Active	Not Active	Not Active	Not Active	Not Active	–	–	–	–	–	–
O=C(O)c1cc(/N=N/c2ccc(S(=O)(=O)Nc3ccccn3)cc2)ccc1O [SULFASALAZINE]	Not Active	Not Active	Not Active	Not Active	Not Active	Not Active	Not Active	Not Active	Not Active	–	–	–	–	–	–
CCN(CC)C(=S)SSC(=S)N(CC)CC	–	–	Not Active	–	Not Active	Not Active	Not Active	Not Active	Not Active	–	–	4.77	5.24	5.22	5.38
CNCCCC12CCC(c3ccccc31)c1ccccc12 [MAPROTILINE]	–	–	Not Active	Not Active	–	–	Not Active	–	–	–	–	–	–	–	–
Cc1ccc(Cl)c(Nc2ccccc2C(=O)O)c1Cl [MECLOFENAMIC ACID]	Not Active	Not Active	Not Active	Not Active	Not Active	Not Active	Not Active	Not Active	Not Active	–	–	–	–	–	–
CC(C)(C)NC[C@H](O)COc1cccc2c1CCCC2=O [LEVOBUNOLOL]	Not Active	Not Active	Not Active	Not Active	Not Active	Not Active	Not Active	Not Active	Not Active	–	–	–	–	–	–
Cc1cccc(C)c1NC(=O)C(C)N (stereo not given) [TOCAINIDE]	Not Active	Not Active	Not Active	Not Active	Not Active	Not Active	Not Active	Not Active	Not Active	–	–	–	–	–	–
CCOc1cc(N)c(Cl)cc1C(=O)NCC1CN(Cc2ccc(F)cc2)CCO1 (stereo not given) [MOSAPRIDE]	Not Active	Not Active	Not Active	Not Active	Not Active	Not Active	Not Active	Not Active	Not Active	–	–	–	–	–	–
Cc1cnc(NC(=O)C2=C(O)c3ccccc3S(=O)(=O)N2C)s1 [MELOXICAM]	Not Active	Not Active	Not Active	Not Active	Not Active	Not Active	Not Active	Not Active	Not Active	–	–	–	–	–	–
O=C1CC[C@@]2(O)[C@H]3Cc4ccc(O)c5c4[C@@]2(CCN3CC2CC2)[C@H]1O5 [NALTREXONE]	Not Active	Not Active	Not Active	Not Active	Not Active	Not Active	Not Active	Not Active	Not Active	–	–	–	–	–	–
O=C(c1ccccc1)c1ccc2n1CCC2C(=O)O (stereo not given) [KETOROLAC]	Not Active	Not Active	Not Active	Not Active	Not Active	Not Active	Not Active	Not Active	Not Active	–	–	–	–	–	–
Oc1ccc(/C=C/c2cc(O)cc(O)c2)cc1 [RESVERATROL]	Not Active	Not Active	Not Active	Not Active	Not Active	Not Active	Not Active	Not Active	Not Active	–	–	–	–	–	–
CN1C(=O)OC(C)(C)C1=O [TRIMETHADIONE]	Not Active	Not Active	Not Active	Not Active	Not Active	Not Active	Not Active	Not Active	Not Active	–	–	–	–	–	–
Cc1[nH]c(=O)c(C#N)cc1-c1ccncc1 [MILRINONE]	Not Active	Not Active	Not Active	Not Active	Not Active	Not Active	Not Active	Not Active	Not Active	–	–	–	–	–	–
CN(C)CCC=C1c2ccccc2COc2ccccc21 [DOXEPIN]	–	–	Not Active	Not Active	–	–	Not Active	–	–	–	–	–	–	–	–
